What all share (assay): NCI tumour cell line growth inhibition, 48 h
The subject of experiment [1] is IGROV1 ovarian.
In experiment [2] the test system is MDA-MB-435.
Experiment [3] concerns TK-10 renal.
For experiment [4], the system named is UO-31 renal.
The subject of experiment [5] is UACC-62 melanoma.
The test system of experiment [6] is SNB-75 CNS.
Experiment [7] deals with NCI/ADR-RES ovarian.
The test system of experiment [8] is OVCAR-5 ovarian.
Experiment [9] deals with M14 melanoma.
The subject of experiment [10] is HS 578T breast.

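Dose response: 5 concentrations. Exposure: 48 h. Format: 96-well plates. Endpoint: linear interpolation; highest concentration if not reached. GI50: concentration for 50% inhibition of growth. TGI denotes the concentration required for complete inhibition of growth.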 Where a SMILES comes first, the peptide text is derived from it. The star is where a group is joined. Palmitoyl = CCCCCCCCCCCCCCCC(=O)*

`Cn1ncc2c(NCc3ccccc3)ncnc21`: the TGI in [1], in experiment [2], in experiment [3], in experiment [4], in experiment [5] and in [6] was > 100 µM throughout. For the same molecule, the TGI in experiment [7] and in [8] was > 100 µM each time.

With `O=C(OCC(Cl)(Cl)Cl)N1CC[C@H](C2CCCCC2)C1`, the TGI in experiment [1] was found to be 32.7 µM; in experiment [3] it was 37.9 µM; in [4], 35.3 µM; in [5] it was 52.9 µM; in experiment [6] it was 35.9 µM; in experiment [9], 39.8 µM. In addition, the TGI in [7] stood at 28.5 µM; in experiment [8] it was 34.4 µM.

For `COc1cc2c(cc1OCCCN1C(=O)c3cccc4cccc(c34)C1=O)N=C[C@@H]1CCCN1C2=O`, the TGI was 31.5 µM in [1]; > 100 µM in [2]; > 100 µM in experiment [3]; > 71 µM in experiment [4]; > 100 µM in [5]; > 100 µM in experiment [9]. The TGI in [7] and in [8] was > 100 µM each time.

Turning to `OC(C#CCN1CCCC1)(c1ccccc1)c1ccccc1Cl` (stereo not given), the TGI in [10] was 73.6 µM; in experiment [1] it was 73.6 µM; in experiment [2], 51.5 µM; in [3] it was > 100 µM; in experiment [4], > 100 µM; in [5], 57.5 µM. For the same molecule, the TGI was > 100 µM in experiment [6], 94.8 µM in experiment [7] and > 100 µM in experiment [8].

Take `CNc1[nH]c(=S)nc2sc3c(c12)CCCC3`: the TGI in experiment [10], in [1], in [2], in [3], in experiment [4] and in experiment [5] was > 75 µM in each case. Besides, the TGI in experiment [6], in experiment [7] and in experiment [8] was > 75 µM each time.

Turning to `O=C(c1ccccc1)c1ccc2c(c1)NC(=O)c1ccccc1SSc1ccccc1C(=O)N2`, the TGI in [10], in [1], in experiment [2], in [3], in experiment [4] and in [5] was > 100 µM each time. Besides, the TGI in experiment [9], in [7] and in experiment [8] was > 100 µM throughout.

In the case of `CCCCCCCCCCCCCCCC(=O)N1CCCC1C(=O)NCC(=O)NC(Cc1ccccc1)C(=O)N1CCCC1C(=O)NC(CO)C(=O)NC(Cc1ccc(O)cc1)C(=O)NC(CCCCN)C(=O)NC(CC(C)C)C(=O)NC(CCCN=C(N)N)C(=O)N1CCCC1C(=O)NCC(N)=O` (stereo not given) (Palmitoyl-PGFPSYKLRPG-NH2; configuration not given here), the GI50 in experiment [10] was 22.2 µM; in experiment [1], 18.6 µM; in experiment [2], 23.6 µM; in experiment [4], 20.5 µM; in [6], 21.7 µM; in experiment [9] it was 14.2 µM. In addition, the GI50 in experiment [7] is 18.2 µM; in experiment [8], 17.1 µM. The TGI in experiment [10] was 74.5 µM; in experiment [1], 48.8 µM; in experiment [2] it was > 100 µM; in experiment [4], 56.8 µM; in [6], 49.3 µM; in experiment [9], 27.3 µM. Moreover, the TGI in experiment [7] turned out to be 39.2 µM; in experiment [8] it was 37.8 µM.

`Cc1nc2ccccc2c(-n2cccn2)c1CCn1cccn1`: the TGI in experiment [10] is > 100 µM; in experiment [1] it was > 100 µM; in experiment [2], > 100 µM; in [3], > 100 µM; in experiment [4] it was 3.43 µM; in experiment [5], > 100 µM. The TGI in experiment [9], in experiment [7] and in experiment [8] was > 100 µM in each case.

Turning to `Cc1cc(OP2(=O)NCc3ncccc3O2)ccc1Cl` (stereo not given), the TGI in experiment [1], in experiment [2], in experiment [4], in experiment [5], in [6] and in experiment [9] was > 100 µM each time. Moreover, the TGI in [7] and in experiment [8] was > 100 µM each time.

Turning to `COc1ccc(CC(N)=O)cc1OC`, the TGI in [1], in [4], in [5], in experiment [6], in [7] and in experiment [8] was > 1250 µM each time.

Regarding `CC12c3c4ccc(C=O)c3Oc3ccc(C=O)c(c31)Oc1ccc(C=O)c(c12)O4`, the TGI in experiment [10], in experiment [1], in experiment [2], in experiment [4], in experiment [5] and in experiment [6] was > 25 µM in each case. In addition, the TGI in [9], in [7] and in experiment [8] was > 25 µM each time.

Consider `CC(C)C1=CC23CCC4C(C)(C(=O)O)CCCC4(C)C2CC1C1C(=O)N(CCCCCCN2C(=O)C4C5CC6C7(C)CCCC(C)(C(=O)O)C7CCC6(C=C5C(C)C)C4C2=O)C(=O)C13` (stereo not given), for which the TGI is 34.9 µM in experiment [10]; 17.8 µM in experiment [2]; 31 µM in experiment [3]; > 100 µM in experiment [5]; 27.5 µM in [9]; 37.4 µM in experiment [8].

On to `COc1cc2c(cc1OCCCCCN1CCN(c3ncnc4ccccc34)CC1)N=CC1CCCN1C2=O` (stereo not given), for which the GI50 was 0.0275 µM in experiment [10]; 0.03 µM in experiment [4]; 0.0196 µM in [5]; 0.0168 µM in experiment [6]; 0.032 µM in experiment [9]; 0.378 µM in experiment [7]. Also, the GI50 in experiment [8] is 0.0359 µM. The TGI in [10] is 0.0842 µM; in experiment [4], 0.198 µM; in experiment [5], 0.0383 µM; in [6], 0.0823 µM; in experiment [9] it was 0.128 µM; in experiment [7] it was > 36.4 µM. The molecule further returned a TGI in experiment [8] of 14.7 µM.

Regarding `O[C@H]1[C@H](O)[C@@H](O)CN2CC[C@H](O)[C@H]12`, the TGI in experiment [1], in experiment [4], in experiment [5], in experiment [6], in [7] and in experiment [8] was > 100 µM throughout.

The values are drawn from PubChem BioAssay (NCI).
